Data taken from patent US11730707B2, “Compounds for treating von Hippel-Lindau disease” (CONSEJO SUPERIOR DE INVESTIGACIONES CIENTÍFICAS, priority 2017, dated 2023).
“Also recorded” adds a separate entry of the source. Where a name gives a salt, the structure may show the parent alone.

What was measured:
[1] = tested on: β2-adrenergic receptor over β1-adrenergic receptor; conditions: reported in literature; cited from earlier work
[2] = tested on: HIF transcriptional activity in HeLa 9XHRE cells; assay: HRE-luciferase reporter assay under DFO chemical hypoxia; type: cell-based, human; conditions: for luciferase activity induced by hypoxia (HIF transcriptional activity): 100 μM, 100 μM DFO
From the text: Angiogenesis is largely dependent of HIF transcription program, triggered in the presence of hypoxic condition, or as in the case of Von Hippel Lindau haemangioblastoma cells, due to the lack of VHL protein in charge of targeting HIF protein for its proteasome processing under normoxic conditions in wild type cells. A special peculiarity of hemangioblastoma cells, and clear cell kidney carcinoma cells, is that they constitutively express HIF protein, which is active, and is translocated to nucleus where it may bind and activates its gene targets such as: VEGF, PDGF, EPO, endoglin, several metalloproteases, carbonic anhydrase, Glut-1 and so on.

[3] = tested on: VHL-derived hemangioblastoma cells (hemangiospheres); assay: Hemangiospheres formation and culture; type: cell-based, human; conditions: 100 μM, 7 days
Description: VHL-derived hemangioblastoma cells were grown in suspension in phenol red free DMEM:F-12 medium with GlutaMAX, supplemented with B27, 20 ng/ml EGF, 20 ng/ml bFGF and 1% penicillin/streptomycin at 37° C. in 5% CO2. Single cell suspensions were plated at a density of 50.000 cells/ml in 75 cm^2 ultralow attachment flasks (Corning).

HUVECs tubulogenesis = assay: Tube formation assay on Matrigel; type: cell-based, human; conditions: 100 μM, 3 hours
From the text: FIG. 6. […] Tubulogenesis is another in vitro test for angiogenesis. Endothelial cells cultured on matrigel have the property of building cell tube-like structures, which mimic the “vessels” structure. […] B. The number of closed cells (density network) is quantified and averaged from 5 different fields in each case. Bar histograms represent the mean±SD.
(§1) In vitro-scratched wounds were created by scraping confluent HUVEC-1 monolayers in P-24 plate wells with sterile disposable pipet tips.

[4] = tested on: BAX and CASP9 mRNA in hemangioblastoma cells; assay: Real-time RT-PCR of proapoptotic genes; type: cell-based, human; conditions: 100 μM, 72 h; HB26 and HB11 hemangioblastoma cell culture
Description: Total cellular RNA was extracted from hemangioblastoma cells using a Nucleo Spin RNA kit (Macherey-Nagel, Düren, Germany). One microgram of total RNA was reverse-transcribed in a final volume of 20 μl with the First Strand cDNA Synthesis Kit (Roche, Mannheim, Germany) using random primers. SYBR Green PCR system (BioRad, Hercules, Calif., USA) was used to carry out real-time PCR with an iQ5 system. Primers used for qPCR were: […]

HUVEC migration = assay: Wound healing assay; type: cell-based, human; conditions: 100 μM, 6 hours
Description: FIG. 5. […] A. Functional in vitro tests for angiogenesis include “wound-healing” or plate-scratch, to follow the migration capacity of endothelial cells after short times. When a confluent monolayer is disrupted with the tip of a micropipette to create a discontinuity, endothelial cells normally migrate to cover the discontinuity “wound the healing” in a short time, depending on the size of the “wound” but normally, less than 8 hours. This test measures the migration by taking pictures at different times from the moment the wound is created. Only the final picture after 6 hours is shown. The migrated distance is quantified, and in the following graph the evolution is shown.
as §1

HUVEC = assay: Cell viability measure (CellTiter-Glo); type: cell-based, human
Description: (§2) Endothelial cell lines (HUVECs and HMECs), human ccRCC Vhl−/− 786-O cell line, and primary cultures hemangioblastomas from patients (Hb14 and 18) were seeded in triplicate onto a 96-well plate (2×10^3 per well). […] Cell viability (cell proliferation, ATP content) was determined using the CellTiter-Glo Luminescent Cell Viability Assay kit (Promega) according to the supplier's instructions. […] Cell lysis was induced in an orbital shaker for 2 min, and then plates were incubated at room temperature for 10 min to stabilize the luminescent signal. Luminescence was measured using a GlomaxMultidetection System (Promega) Readings were normalized to control (100%).

HMEC = assay: Cell viability measure (CellTiter-Glo); type: cell-based, human
Description: as §2

[5] = tested on: primary cultures hemangioblastomas from patients (Vhl−/−); assay: Cell viability measure (CellTiter-Glo); type: cell-based, human; conditions: for viability (ATP content) of the VHL−/− cells: 72 hours, hemangioblastoma primary cultures 18, 14 and 786-O vs HUVEC, HMEC (FIG. 9)
Description: Cell viability (cell proliferation, ATP content) was determined using the CellTiter-Glo Luminescent Cell Viability Assay kit (Promega) according to the supplier's instructions. […] Cell lysis was induced in an orbital shaker for 2 min, and then plates were incubated at room temperature for 10 min to stabilize the luminescent signal. Luminescence was measured using a GlomaxMultidetection System (Promega) Readings were normalized to control (100%).

[6] = tested on: 786-O Vhl−/− ccRCC xenograft; type: in vivo; conditions: 10 mg/Kg daily intraperitoneally; 50-60 days after the cell inoculation
Description: FIG. 10. Xenografts of 786-O Vhl−/− human ccRCC cells in mice. Male 7-8 weeks old NOD scid gamma (NSG) mice were injected in the dorsal flank with a single cell suspension of 10^6 786-O cells. When tumor size reached 100 mm3 volume, mice were randomly divided in 3 groups, of 9/10 mice each. […] Tumor size was measured by a caliper every 2-3 days and volumes were calculated following the formula: shortest^2×largest×0.52. Mice were sacrificed when tumor volume average of the control group reached an end point established based on ethical procedures. Arrow marks the beginning of the treatment.
Male 7-8 weeks old NOD scid gamma (NSG) mice were injected in the dorsal flank with a single cell suspension of […] 786-O cells. When tumor size reached 100 mm^3 volume, mice were randomly divided in 3 groups, of 9/10 mice each. […] Tumor size was measured by a caliper every 2-3 days and volumes were calculated following the formula: shortest 2×largest×0.52. Mice were sacrificed when tumor volume average of the control group reached an end point established according to ethical procedures

[7] = tested on: hemangioblastoma primary cell cultures from VHL patients; conditions: both at 100 μM, 72 hours
Description: HeLa 9XHRE cells were stably transfected with a HREluc reporter carrying nine copies in tandem of the hypoxia responsive element (HRE) followed by luciferase gene, and were cultured in DMEM (Dulbecco's Modified Eagle Medium, Gibco, Grand Island, N.Y., USA) supplemented with 10% fetal bovine serum (FBS; Gibco). To induce hypoxic conditions, HeLa cells were cultured with 100 μM desferrioxamine (DFO) (chemical hypoxia). […] Primary cultures of CNS hemangioblastoma were obtained according to the previously described by Albiñana et al., Orphanet J Rare Diseases, 2015, 10: 118.
The viability of hemangioblastoma and HeLa 9XHRE cells was measured with a CellTiter-Glo Luminescent Cell Viability Assay (Promega, Madison, Wis., USA). This is a homogeneous method to determine the number of viable cells in culture based on quantitation of the ATP present, which signals the presence of metabolically active cells. […] After treatment, plates were equilibrated to room temperature for 30 min before the addition of 100 μl of Cell Titer-Glo reagent (Lysis buffer, Ultra-Glo Recombinant Luciferase, Luciferine and Mg2+). Luminescence was measured using a Glomax Multidetection System (Promega).

[8] = tested on: human ccRCC Vhl−/− 786-O cell line; assay: Cell viability measure (CellTiter-Glo); type: cell-based; conditions: 72 hours, 0 to 250 μM
Description: as §2

retina hemangioblastomas = conditions: cited from earlier work

## COc1ccc(OC)c(C(O)C(C)NC(C)(C)C)c1 (racemic) [butoxamine, DL-erythro-α-(2,5-dimethoxyphenyl)-β-t-butyl aminopropanol hydrochloride]
[1]
  β2/β1 selectivity ratio: at least 17

## CC(C)NCC(O)COc1ccc(CC(N)=O)cc1 (stereo not shown) [Atenolol]
[2]
  luciferase activity induced by hypoxia (HIF transcriptional activity): less significant
[2]; listed as atenolol
  luciferase activity induced by hypoxia (HIF transcriptional activity): hardly reduced the hypoxia stimulation

## Cc1ccc(OCC(O)C(C)NC(C)C)c2c1CCC2 [ICI 118,551, erythro-D,L-1(methylinden-4-yloxy)-3-isopropylaminobutan-2-ol]
[3]
  hemangiosphere formation: hemangiospheres are disrupted; also recorded: the spheres appear disaggregated
HUVECs tubulogenesis
  tubulogenesis (number of closed structures): dramatically decreased; also recorded: significantly inhibit the tubulogenesis
[4]
  Bax mRNA expression (RT-qPCR): significantly upregulated; also recorded: increased
  Caspase 9 mRNA expression (RT-qPCR): significantly upregulated; also recorded: increased
HUVEC migration
  cell migration (closure of the discontinuity): delay the closure of the discontinuity; also recorded: delay cell migration
HUVEC; 100 μM (FIG. 11)
  decrease in viability: 80%
HUVEC; 72 hours, 0 to 250 μM
  LD50: around 150 μM
HMEC; HMEC-1, 100 μM (FIG. 11)
  decrease in viability: 55%
HMEC; HMEC, 72 hours, 0 to 250 μM
  LD50: around 150 μM
[5]
  viability (ATP content) of the VHL−/− cells: decrease, in a dose-dependent manner and with higher specificity
[5]; Homo sapiens, Haemangioblastoma (HB) cells, 100 μM (FIG. 11)
  viability at 100 µM: 20%
[2]
  luciferase activity induced by hypoxia (HIF transcriptional activity): reduced practically to “0”
[2]; listed as ICI
  luciferase activity induced by hypoxia (HIF transcriptional activity): prevented hypoxia stimulation
[2]; listed as ICI118,551
  luciferase activity induced by hypoxia (HIF transcriptional activity): extremely reduced
[2]; 50 or 100 μMolar, 24 h, DFO 100 μMolar simultaneously
  hypoxia stimulation induced by DFO (relative luciferase activity): inhibits the hypoxia stimulation induced by DFO
[2]; equal dose
  effect on HIF luciferase activity compared with propranolol: clearly superior to propranolol
[6]
  decrease of the size tumor versus vehicle treated mice: around 30%
[7]
  effect on viability compared with propranolol: superior to propranolol
[1]
  β2/β1 selectivity ratio: at least 50
[8]
  LD50: 100 µM

## CC(C)NCC(O)COc1cccc2ccccc12 (stereo not shown) [Propranolol]
[3]
  hemangiosphere formation: hemangiospheres are disrupted; also recorded: the spheres appear disaggregated
HUVECs tubulogenesis
  tubulogenesis (number of closed structures): dramatically decreased; also recorded: significantly inhibit the tubulogenesis
HUVEC migration
  cell migration (closure of the discontinuity): delay the closure of the discontinuity; also recorded: delay cell migration
Retina hemangioblastomas; 120 mg a day, 12 months, 7 VHL patients
  tumor growth during the clinical trial: did not grow in any case
Retina hemangioblastomas; 120 mg a day, 12 months
  visual acuity: in some cases visual acuity increased
Retina hemangioblastomas; 120 mg a day
  side effect: Low blood pressure
Retina hemangioblastomas; 2 cases, between 3 and 6 months of treatment
  exudates from the hemangioblastomas: disappeared completely
[5]
  viability (ATP content) of the VHL−/− cells: decrease, in a dose-dependent manner and with higher specificity
[2]
  luciferase activity induced by hypoxia (HIF transcriptional activity): dampened; also recorded: prevented hypoxia stimulation
[2]; listed as propranolol
  luciferase activity induced by hypoxia (HIF transcriptional activity): extremely reduced
[6]
  decrease of the size tumor versus vehicle treated mice: around 30%
